What follows are molecules tested on MOLM-13 cells (assay: Caspase cleavage assay (Caspase3, 7 activation)). Conditions: Homo sapiens, 16 h treatment, caspase substrate Z-DEVD-R110, read-out: c* Concentration at which 50% of the maximum signal was achieved (caspase activation).
Type: cell-based
Experimental: Caspase3, 7 Activation. MOLM-13 cells (30,000 cells/well) were plated in black 96-well plates (Corning Cat. #3603) in 40 μL of RPMI media, and left in an incubator (37° C., 5% CO2) for up to 24 h. Cells were treated for 16 h with compounds or DMSO (control) at desired concentrations in 50 μL of media. Drugs were added in triplicate wells. Following exposure of cells to Hsp70 inhibitors, 50 μL of buffer containing 10 mM HEPES (pH 7.5), 2 mM EDTA, 0.1% CHAPS and the caspase substrate Z-DEVD-R110 at 25 μM was added to each well. Plates were incubated until the signal stabilized and then the fluorescence signal of each well was measured in an Analyst GT microplate reader. The percentage increase in apoptotic cells was calculated by comparison of the fluorescence reading obtained from treated versus control cells.

SMILES	EC50 [nM]
CN1CCN(c2ncc(Sc3ccc(C(N)=O)cc3)c(OCc3cccc(N(C)C)c3)n2)CC1 [100a, 4-((4-((3-(Dimethylamino)benzyl)oxy)-2-(4-methylpiperazin-1-yl)pyrimidin-5-yl)thio)benzamide]	< 200
CN1CCN(c2ncc(Sc3ccc(C(N)=O)cc3)c(OCc3cccc(N4CCCC4)c3)n2)CC1 [100b, 4-((2-(4-Methylpiperazin-1-yl)-4-((3-(pyrrolidin-1-yl)benzyl)oxy)pyrimidin-5-yl)thio)benzamide]	200 to 400
CN1CCN(c2ncc(Sc3ccc(C(N)=O)cc3)c(OCc3ccc(F)c(N(C)C)c3)n2)CC1 [100c, 4-((4-((3-(Dimethylamino)-4-fluorobenzyl)oxy)-2-(4-methylpiperazin-1-yl)pyrimidin-5-yl)thio)benzamide]	< 200
CC(Oc1nc(N2CCN(C)CC2)ncc1Sc1ccc(C(N)=O)cc1)c1cccc(N(C)C)c1 (centres unmarked) [100d, 4-((4-(1-(3-(Dimethylamino)phenyl)ethoxy)-2-(4-methylpiperazin-1-yl)pyrimidin-5-yl)thio)benzamide]	≥ 1200
CN1CCN(c2ncc(Sc3ccc(C(N)=O)cc3)c(OCc3cccc(NC4CC4)c3)n2)CC1 [100e, 4-((4-((3-(Cyclopropylamino)benzyl)oxy)-2-(4-methylpiperazin-1-yl)pyrimidin-5-yl)thio)benzamide]	< 200
CN1CCN(c2ncc(Sc3ccc(C(N)=O)cc3)c(OCc3cccc(-n4cccn4)c3)n2)CC1 [100f, 4-((4-((3-(1H-Pyrazol-1-yl)benzyl)oxy)-2-(4-methylpiperazin-1-yl)pyrimidin-5-yl)thio)benzamide]	400 to 1000
COc1cccc(COc2nc(N3CCN(C)CC3)ncc2Sc2ccc(C(N)=O)cc2)c1 [100g, 4-((4-((3-Methoxybenzyl)oxy)-2-(4-methylpiperazin-1-yl)pyrimidin-5-yl)thio)benzamide]	< 200
CN1CCN(c2ncc(Sc3ccc(C(N)=O)cc3)c(OCCc3ccccc3)n2)CC1 [100h, 4-((2-(4-Methylpiperazin-1-yl)-4-phenethoxypyrimidin-5-yl)thio)benzamide]	200 to 400
CN1CCN(c2ncc(Sc3ccc(C(N)=O)cc3)c(OCc3ccco3)n2)CC1 [100i, 4-((4-(Furan-2-ylmethoxy)-2-(4-methylpiperazin-1-yl)pyrimidin-5-yl)thio)benzamide]	400 to 1000
CN1CCN(c2ncc(Sc3ccc(C(N)=O)cc3)c(OCc3ccoc3)n2)CC1 [100j, 4-((4-(Furan-3-ylmethoxy)-2-(4-methylpiperazin-1-yl)pyrimidin-5-yl)thio)benzamide]	200 to 400
CN1CCN(c2ncc(Sc3ccc(C(N)=O)cc3)c(OCc3ccc(F)cc3)n2)CC1 [100m, 4-((4-((4-Fluorobenzyl)oxy)-2-(4-methylpiperazin-1-yl)pyrimidin-5-yl)thio)benzamide]	200 to 400
C[C@H](Oc1nc(N2CCN(C)CC2)ncc1Sc1ccc(C(N)=O)cc1)c1ccc(F)cc1 [100n, (S)-4-((4-(1-(4-Fluorophenyl)ethoxy)-2-(4-methylpiperazin-1-yl)pyrimidin-5-yl)thio)benzamide]	≥ 1200
C[C@@H](Oc1nc(N2CCN(C)CC2)ncc1Sc1ccc(C(N)=O)cc1)c1ccc(F)cc1 [100o, (R)-4-((4-(1-(4-Fluorophenyl)ethoxy)-2-(4-methylpiperazin-1-yl)pyrimidin-5-yl)thio)benzamide]	≥ 1200
CC(=O)c1cccc(COc2nc(N3CCN(C)CC3)ncc2Sc2ccc(C(N)=O)cc2)c1 [100q, 4-((4-((3-Acetylbenzyl)oxy)-2-(4-methylpiperazin-1-yl)pyrimidin-5-yl)thio)benzamide]	400 to 1000
CN1CCN(c2ncc(Sc3ccc(C(N)=O)cc3)c(OCc3ccnc(N)c3)n2)CC1 [100r, 4-((4-((2-Aminopyridin-4-yl)methoxy)-2-(4-methylpiperazin-1-yl)pyrimidin-5-yl)thio)benzamide]	1000 to 1200
CN1CCN(c2ncc(Sc3ccc(C(N)=O)cc3)c(OCc3cccc(I)c3)n2)CC1 [100s, 4-((4-((3-Iodobenzyl)oxy)-2-(4-methylpiperazin-1-yl)pyrimidin-5-yl)thio)benzamide]	200 to 400
[2H]c1c([2H])c([2H])c(COc2nc(N3CCN(C)CC3)ncc2Sc2ccc(C(N)=O)cc2)c([2H])c1[2H] [100t, 4-((4-(Benzyloxy-d5)-2-(4-methylpiperazin-1-yl)pyrimidin-5-yl)thio)benzamide]	400 to 1000
[2H]C([2H])(Oc1nc(N2CCN(C)CC2)ncc1Sc1ccc(C(N)=O)cc1)c1ccccc1 [100u, 4-((4-(Benzyloxy-d2)-2-(4-methylpiperazin-1-yl)pyrimidin-5-yl)thio)benzamide]	400 to 1000
CN1CCN(c2ncc(Sc3ccc(C(N)=O)cc3)c(OCc3ccc(I)cc3)n2)CC1 [100v, 4-((4-((4-Iodobenzyl)oxy)-2-(4-methylpiperazin-1-yl)pyrimidin-5-yl)thio)benzamide]	≥ 1200

SMILES	EC50 [nM]
CN1CCN(c2ncc(Sc3ccc(C(N)=O)cc3)c(OCc3cccc(C(N)=O)c3)n2)CC1 [100w, 3-(((5-((4-Carbamoylphenyl)thio)-2-(4-methylpiperazin-1-yl)pyrimidin-4-yl)oxy)methyl)benzamide]	400 to 1000
CN1CCN(c2ncc(Sc3ccc(C(N)=O)cc3)c(OCc3cccc(N)c3)n2)CC1 [100x, 4-((4-((3-Aminobenzyl)oxy)-2-(4-methylpiperazin-1-yl)pyrimidin-5-yl)thio)benzamide]	< 200
CN1CCN(c2ncc(Sc3ccc(N)nc3)c(OCc3ccc(F)cc3)n2)CC1 [146c, 5-((4-((4-Fluorobenzyl)oxy)-2-(4-methylpiperazin-1-yl)pyrimidin-5-yl)thio)pyridin-2-amine]	200 to 400
CN1CCN(c2ncc(Sc3ccc(N)nc3)c(OCc3cccc(C(F)(F)F)c3)n2)CC1 [146e, 5-((2-(4-Methylpiperazin-1-yl)-4-((3-(trifluoromethyl)benzyl)oxy)pyrimidin-5-yl)thio)pyridin-2-amine]	400 to 1000
NC(=O)c1ccc(Sc2cnc(N3CCOCC3)nc2OCc2ccccc2)cc1 [179a]	≥ 1200
CN(C)[C@H]1CCN(c2ncc(Sc3ccc(C(N)=O)cc3)c(OCc3ccccc3)n2)C1 [179c, (S)-4-((4-(Benzyloxy)-2-(3-(dimethylamino)pyrrolidin-1-yl)pyrimidin-5-yl)thio)benzamide]	≥ 1200
CN(C)c1cccc(COc2nc(N3CCOCC3)ncc2Sc2ccc(C(N)=O)cc2)c1 [185a, 4-((4-((3-(Dimethylamino)benzyl)oxy)-2-morpholinopyrimidin-5-yl)thio)benzamide]	1000 to 1200
CC(C)N1CCN(c2ncc(Sc3ccc(C(N)=O)cc3)c(OCc3cccc(N(C)C)c3)n2)CC1 [185b, 4-((4-((3-(Dimethylamino)benzyl)oxy)-2-(4-isopropylpiperazin-1-yl)pyrimidin-5-yl)thio)benzamide]	1000 to 1200
CN(C)c1cccc(COc2nc(N3CCN(CCO)CC3)ncc2Sc2ccc(C(N)=O)cc2)c1 [185d, 4-((4-((3-(Dimethylamino)benzyl)oxy)-2-(4-(2-hydroxyethyl)piperazin-1-yl)pyrimidin-5-yl)thio)benzamide]	400 to 1000
C#CCCCCN1CCN(c2ncc(Sc3ccc(C(N)=O)cc3)c(OCc3cccc(N(C)C)c3)n2)CC1 [185e, 4-((4-((3-(Dimethylamino)benzyl)oxy)-2-(4-(hex-5-yn-1-yl)piperazin-1-yl)pyrimidin-5-yl)thio)benzamide]	< 200
COc1cccc(COc2nc(N3CCOCC3)ncc2Sc2ccc(C(N)=O)cc2)c1 [190a, 4-((4-((3-Methoxybenzyl)oxy)-2-morpholinopyrimidin-5-yl)thio)benzamide]	200 to 400
COc1cccc(COc2nc(N3CCN(C(C)C)CC3)ncc2Sc2ccc(C(N)=O)cc2)c1 [190b, 4-((2-(4-Isopropylpiperazin-1-yl)-4-((3-methoxybenzyl)oxy)pyrimidin-5-yl)thio)benzamide]	200 to 400
COc1cccc(COc2nc(N3CC[C@@H](N(C)C)C3)ncc2Sc2ccc(C(N)=O)cc2)c1 [190e, (R)-4-((2-(3-(dimethylamino)pyrrolidin-1-yl)-4-((3-methoxybenzyl)oxy)pyrimidin-5-yl)thio)benzamide]	< 200
COc1cccc(COc2nc(N(C)CCN(C)C)ncc2Sc2ccc(C(N)=O)cc2)c1 [190g, 4-((2-((2-(Dimethylamino)ethyl)(methyl)amino)-4-((3-methoxybenzyl)oxy)pyrimidin-5-yl)thio)benzamide]	≥ 1200
COc1cccc(COc2nc(N3CCCN(C)CC3)ncc2Sc2ccc(C(N)=O)cc2)c1 [190h]	≥ 1200
C#CCCCCN1CCN(c2ncc(Sc3ccc(C(N)=O)cc3)c(OCc3cccc(OC)c3)n2)CC1 [190j, 4-((2-(4-(Hex-5-yn-1-yl)piperazin-1-yl)-4-((3-methoxybenzyl)oxy)pyrimidin-5-yl)thio)benzamide]	< 200
C#CCCCN1CCN(c2ncc(Sc3ccc(C(N)=O)cc3)c(OCc3cccc(OC)c3)n2)CC1 [190k, 4-((4-((3-Methoxybenzyl)oxy)-2-(4-(pent-4-yn-1-yl)piperazin-1-yl)pyrimidin-5-yl)thio)benzamide]	< 200
COc1cccc(COc2nc(N3CC(N(C)C)C3)ncc2Sc2ccc(C(N)=O)cc2)c1 [190m, 4-((2-(3-(Dimethylamino)azetidin-1-yl)-4-((3-methoxybenzyl)oxy)pyrimidin-5-yl)thio)benzamide]	< 200
C#CC(C)N1CCN(c2ncc(Sc3ccc(C(N)=O)cc3)c(OCc3cccc(OC)c3)n2)CC1 (centres unmarked) [190n, 4-((2-(4-(But-3-yn-2-yl)piperazin-1-yl)-4-((3-methoxybenzyl)oxy)pyrimidin-5-yl)thio)benzamide]	200 to 400

— patent US10160729B2, “Hsp70 modulators and methods for making and using the same” (Memorial Sloan Kettering Cancer Center, priority 2014, dated 2018)
